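Where inhibition never reached the appropriate level, the endpoint shown equals the highest concentration tested. Otherwise, values were interpolated linearly from a five-concentration, 48-hour dose response in 96-well plates. At the GI50, growth is halved. TGI denotes the concentration required for complete inhibition of growth.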
Experiments:
Assay in all cases: NCI anticancer screen, dose series, 48 h; in the data active means GI50 below about 0.43 µM; inactive means the rest
[1] = system: HOP-92 NSCLC
[2] = system: OVCAR-8 ovarian
[3] = system: OVCAR-4 ovarian
[4] = system: SF-268 CNS
[5] = system: CAKI-1 renal
[6] = system: A498 renal
[7] = system: SK-MEL-28 melanoma
[8] = system: OVCAR-5 ovarian
[9] = system: UO-31 renal
[10] = system: HCC-2998 colon
[11] = system: UACC-257 melanoma
[12] = system: EKVX NSCLC
[13] = system: SK-MEL-5 melanoma
[14] = system: IGROV1 ovarian
[15] = system: XF 498 CNS
[16] = system: ACHN renal
[17] = system: DMS 114 small cell lung
[18] = system: NCI-H226 lung
[19] = system: 786-0 renal
[20] = system: NCI-H522 lung
[21] = system: SW-620 colon
[22] = system: COLO 205 colon
[23] = system: SNB-75 CNS
[24] = system: LXFL 529 NSCLC
[25] = system: U251 CNS
[26] = system: SN12C renal
[27] = system: HOP-62 NSCLC
[28] = system: HCT-116 colon
[29] = system: CCRF-CEM leukemia
[30] = system: A549 NSCLC
[31] = system: SNB-19 CNS
[32] = system: SR leukemia
[33] = system: K-562 leukemia
[34] = system: NCI-H460 lung
[35] = system: HCT-15 colon
[36] = system: KM12 colon
[37] = system: HOP-18 NSCLC
[38] = system: DLD-1 colon
[39] = system: DMS 273 small cell lung
[40] = system: HL-60(TB) leukemia
[41] = system: M14 melanoma
[42] = system: MOLT-4 leukemia
[43] = system: TK-10 renal
[44] = system: SNB-78 CNS
[45] = system: KM20L2 colon
[46] = system: UACC-62 melanoma
[47] = system: NCI-H23 lung
[48] = system: HT29 colon
[49] = system: SF-539 CNS
[50] = system: SF-295 CNS
[51] = system: SK-OV-3 ovarian
[52] = system: RPMI-8226 leukemia
[53] = system: SK-MEL-2 melanoma
[54] = system: M19-MEL melanoma
[55] = system: MALME-3M melanoma
[56] = system: RXF 393 renal
[57] = system: LOX IMVI melanoma
[58] = system: RXF-631 renal
[59] = system: OVCAR-3 ovarian

COc1ccc([C@H]2CC(=O)N3CCCC3N2)cc1 (stereo partly drawn)
> 100 µM: TGI [1] | TGI [2] | TGI [3] | TGI [4] | TGI [5] | TGI [6] | TGI [7] | TGI [8] | TGI [9] | TGI [10] | TGI [11] | TGI [12] | TGI [13] | TGI [14] | TGI [15] | TGI [16] | TGI [17] | TGI [18] | TGI [19] | TGI [20] | TGI [21] | TGI [22] | TGI [23] | TGI [24] | TGI [25] | TGI [26] | TGI [27] | TGI [28] | TGI [29] | TGI [30] | TGI [31] | TGI [32] | TGI [33] | TGI [34] | TGI [35] | TGI [36] | TGI [37] | TGI [38] | TGI [39] | TGI [40] | TGI [41] | TGI [42] | TGI [43] | TGI [44] | TGI [45] | TGI [46] | TGI [47] | TGI [48] | TGI [49] | TGI [50] | TGI [51] | TGI [52] | TGI [53] | TGI [54] | TGI [55] | TGI [56]

CC12CC3(C)CC(C)(C1)CC(N=[N+]=[N-])(C2)C3
> 100 µM: TGI [1] | TGI [2] | TGI [3] | TGI [4] | TGI [5] | TGI [6] | TGI [7] | TGI [8] | TGI [9] | TGI [10] | TGI [11] | TGI [12] | TGI [13] | TGI [57] | TGI [14] | TGI [15] | TGI [16] | TGI [17] | TGI [18] | TGI [19] | TGI [20] | TGI [21] | TGI [58] | TGI [22] | TGI [23] | TGI [24] | TGI [25] | TGI [26] | TGI [27] | TGI [28] | TGI [29] | TGI [59] | TGI [30] | TGI [31] | TGI [32] | TGI [33] | TGI [34] | TGI [36] | TGI [37] | TGI [38] | TGI [39] | TGI [41] | TGI [42] | TGI [43] | TGI [44] | TGI [46] | TGI [47] | TGI [48] | TGI [49] | TGI [50] | TGI [51] | TGI [52] | TGI [53] | TGI [54] | TGI [55] | TGI [56]

Nc1nc2c(ncn2Cc2ccccc2CCO)c(=O)[nH]1
> 100 µM: TGI [1] | TGI [2] | TGI [3] | TGI [4] | TGI [5] | TGI [6] | TGI [7] | TGI [8] | TGI [9] | TGI [10] | TGI [12] | TGI [13] | TGI [57] | TGI [14] | TGI [15] | TGI [16] | TGI [17] | TGI [18] | TGI [19] | TGI [20] | TGI [21] | TGI [58] | TGI [22] | TGI [23] | TGI [24] | TGI [25] | TGI [26] | TGI [27] | TGI [29] | TGI [59] | TGI [30] | TGI [31] | TGI [33] | TGI [34] | TGI [35] | TGI [36] | TGI [39] | TGI [40] | TGI [41] | TGI [42] | TGI [43] | TGI [45] | TGI [46] | TGI [47] | TGI [48] | TGI [50] | TGI [51] | TGI [52] | TGI [53] | TGI [54] | TGI [55] | TGI [56]

CC1(C)C(=O)C(O)=CC2C1=CCC1C2(C)C(=O)CC2(C)C(C(C)(O)C(=O)CC(O)C(C)(C)O)C(O)CC12C (stereo not drawn)
67.1 µM: TGI [47]
5.94 µM: TGI [43]
30.2 µM: TGI [11]
5.54 µM: TGI [56]
4.77 µM: TGI [23]
9.76 µM: TGI [4]
12.1 µM: TGI [55]
14 µM: TGI [10]
33.7 µM: TGI [28]
38.8 µM: TGI [12]
19.1 µM: TGI [52]
10.2 µM: TGI [59]
4.56 µM: TGI [1]
> 88.7 µM: TGI [35]
> 100 µM: TGI [2] | TGI [8] | TGI [22] | TGI [36]
11.8 µM: TGI [3]
> 97.2 µM: TGI [54]
> 50.7 µM: TGI [21]
> 74.6 µM: TGI [38]
56.5 µM: TGI [34]
6.12 µM: TGI [53]
16.2 µM: TGI [16]
5.65 µM: TGI [19]
17.4 µM: TGI [24]
42.4 µM: TGI [45]
9.61 µM: TGI [39]
45.9 µM: TGI [17]
8.61 µM: TGI [20]
13.1 µM: TGI [50]
5.1 µM: TGI [5]
4.37 µM: TGI [6]
29.7 µM: TGI [46]
6.95 µM: TGI [57]
7.1 µM: TGI [14]
> 80.2 µM: TGI [33]
12.3 µM: TGI [37]
7.58 µM: TGI [25]
7.43 µM: TGI [7]
11.6 µM: TGI [40]
25.3 µM: TGI [32]
11.5 µM: TGI [27]
25.9 µM: TGI [44]
12.7 µM: TGI [31]
> 81.8 µM: TGI [42]
23.8 µM: TGI [41]
5.98 µM: TGI [49]
7.31 µM: TGI [18]
12 µM: TGI [29]
28.9 µM: TGI [51]
6.34 µM: TGI [15]
> 74.1 µM: TGI [30]
inactive: GI50 [23] 1.74 µM
> 90.4 µM: TGI [26]
8.53 µM: TGI [13]
> 64.5 µM: TGI [48]
4.49 µM: TGI [9]
